# Measured values: patent US8299048B2, “Hexahydrocyclopentyl[f]indazole sulfonamides and derivatives thereof as selective glucocorticoid receptor modulators” (Merck Sharp & Dohme Corp., priority 2008, dated 2012)
# Molecular target: T1, glucocorticoid receptor (Homo sapiens, UniProt P04150)
# T1 construct: endogenous in cells
# T1 sequence (P04150 1-777): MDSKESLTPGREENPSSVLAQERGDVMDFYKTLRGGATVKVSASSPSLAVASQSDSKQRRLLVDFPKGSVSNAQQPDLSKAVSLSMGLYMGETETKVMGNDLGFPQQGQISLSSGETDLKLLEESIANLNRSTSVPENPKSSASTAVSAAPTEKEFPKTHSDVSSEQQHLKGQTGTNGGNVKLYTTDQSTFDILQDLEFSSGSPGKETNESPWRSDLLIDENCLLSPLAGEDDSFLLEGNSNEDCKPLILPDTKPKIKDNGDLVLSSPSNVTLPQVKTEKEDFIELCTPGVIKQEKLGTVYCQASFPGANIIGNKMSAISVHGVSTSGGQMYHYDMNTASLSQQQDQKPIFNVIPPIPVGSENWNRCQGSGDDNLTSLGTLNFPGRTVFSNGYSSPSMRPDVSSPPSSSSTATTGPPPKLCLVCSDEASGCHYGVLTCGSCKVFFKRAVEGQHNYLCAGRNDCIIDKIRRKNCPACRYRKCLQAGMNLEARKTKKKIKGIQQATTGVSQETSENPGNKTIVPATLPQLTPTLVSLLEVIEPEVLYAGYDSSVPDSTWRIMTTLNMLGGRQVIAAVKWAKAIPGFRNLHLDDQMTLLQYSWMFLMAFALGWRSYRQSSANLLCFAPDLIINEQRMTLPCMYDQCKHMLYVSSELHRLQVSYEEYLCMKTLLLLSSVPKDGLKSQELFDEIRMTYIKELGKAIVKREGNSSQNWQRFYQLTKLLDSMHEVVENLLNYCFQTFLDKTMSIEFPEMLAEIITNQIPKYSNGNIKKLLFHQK
# Assay: Ligand binding assay (GR BIND)
# In short: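 Displacement of tritiated dexamethasone (6 nM trace solution) from receptor in cell supernatant was measured after overnight incubation at 4 °C in molybdate-containing TEGM, pH 7.2, 2% ethanol. Hydroxylapatite pulled down the receptor–ligand complex for filter washing and scintillation counting, with dexamethasone as reference.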
row,SMILES,Ki [nM]
1,"C[C@]12Cc3cnn(-c4ccc(F)cc4)c3C=C1CC[C@@H]2CN(CCO)S(=O)(=O)c1ccccc1C#N [Example 78, 2-cyano-N-{[(4αR,5S)-1-(4-fluorophenyl)-4α-methyl-1,4,4α,5,6,7-hexahydrocyclopenta[f]indazol-5-yl]methyl}-N-(2-hydroxyethyl)benzenesulfonamide]",2.3
2,"C[C@]12Cc3cnn(-c4ccc(F)cc4)c3C=C1CC[C@@H]2CN(CCO)S(=O)(=O)c1ccc(Oc2ccccc2)cc1 [Example 79, N-{[(4αR,5S)-1-(4-fluorophenyl)-4α-methyl-1,4,4α,5,6,7-hexahydrocyclopenta[f]indazol-5-yl]methyl}-N-(2-hydroxyethyl)-4-phenoxybenzenesulfonamide]",4.8
3,"C[C@]12Cc3cnn(-c4ccc(F)cc4)c3C=C1CC[C@@H]2CN(CCO)S(=O)(=O)c1cc(C(F)(F)F)ccc1Cl [Example 80, 2-chloro-N-{[(4αR,5S)-1-(4-fluorophenyl)-4α-methyl-1,4,4α,5,6,7-hexahydrocyclopenta[f]indazol-5-yl]methyl}-N-(2-hydroxyethyl)-5-(trifluoromethyl)benzenesulfonamide]",13.7
4,"C[C@]12Cc3cnn(-c4ccc(F)cc4)c3C=C1CC[C@@H]2CN(CCO)S(=O)(=O)c1ccccc1Cl [Example 81, 2-chloro-N-{[(4αR,5S)-1-(4-fluorophenyl)-4α-methyl-1,4,4α,5,6,7-hexahydrocyclopenta[f]indazol-5-yl]methyl}-N-(2-hydroxyethyl)benzenesulfonamide]",7.2
5,"C[C@]12Cc3cnn(-c4ccc(F)cc4)c3C=C1CC[C@@H]2CN(CCO)S(=O)(=O)c1ccc(F)cc1F [Example 82, 2,4-difluoro-N-{[(4αR,5S)-1-(4-fluorophenyl)-4α-methyl-1,4,4α,5,6,7-hexahydrocyclopenta[f]indazol-5-yl]methyl}-N-(2-hydroxyethyl)benzenesulfonamide]",3.2
6,"Cc1nn(C)c(Cl)c1S(=O)(=O)N(CCO)C[C@H]1CCC2=Cc3c(cnn3-c3ccc(F)cc3)C[C@@]21C [Example 83, 5-chloro-N-{[(4αR,5S)-1-(4-fluorophenyl)-4α-methyl-1,4,4α,5,6,7-hexahydrocyclopenta[f]indazol-5-yl]methyl}-N-(2-hydroxyethyl)-1,3-dimethyl-1H-pyrazole-4-sulfonamide]",3.7
7,"C[C@]12Cc3cnn(-c4ccc(F)cc4)c3C=C1CC[C@@H]2CN(CCO)S(=O)(=O)c1ccccc1-c1ccccc1 [Example 84, N-{[(4αR,5S)-1-(4-fluorophenyl)-4α-methyl-1,4,4α,5,6,7-hexahydrocyclopenta[f]indazol-5-yl]methyl}-N-(2-hydroxyethyl)biphenyl-2-sulfonamide]",2.6
8,"CC(=O)Nc1ccc(S(=O)(=O)N(CCO)C[C@H]2CCC3=Cc4c(cnn4-c4ccc(F)cc4)C[C@@]32C)cc1 [Example 85, N-(4-{[{[(4αR,5S)-1-(4-fluorophenyl)-4α-methyl-1,4,4α,5,6,7-hexahydrocyclopenta[f]indazol-5-yl]methyl}(2-hydroxyethyl)amino]sulfonyl}phenyl)acetamide]",6.9
9,"C[C@]12Cc3cnn(-c4ccc(F)cc4)c3C=C1CC[C@@H]2CN(CCc1ccccc1F)S(=O)(=O)c1ccccc1F [Example 86, 2-fluoro-N-[2-(2-fluorophenyl)ethyl]-N-{[(4αR,5S)-1-(4-fluorophenyl)-4α-methyl-1,4,4α,5,6,7-hexahydrocyclopenta[f]indazol-5-yl]methyl}benzenesulfonamide]",4.2
10,"CCCS(=O)(=O)N(CCc1ccccc1F)C[C@H]1CCC2=Cc3c(cnn3-c3ccc(F)cc3)C[C@@]21C [Example 87, N-[2-(2-fluorophenyl)ethyl]-N-{[(4αR,5S)-1-(4-fluorophenyl)-4α-methyl-1,4,4α,5,6,7-hexahydrocyclopenta[f]indazol-5-yl]methyl}propane-1-sulfonamide]",2.8
11,"C[C@]12Cc3cnn(-c4ccc(F)cc4)c3C=C1CC[C@@H]2CN(CCc1ccccc1F)S(=O)(=O)Cc1cccc(C(F)(F)F)c1 [Example 88, N-[2-(2-fluorophenyl)ethyl]-N-{[(4αR,5S)-1-(4-fluorophenyl)-4α-methyl-1,4,4α,5,6,7-hexahydrocyclopenta[f]indazol-5-yl]methyl}-1-[3-(trifluoromethyl)phenyl]methanesulfonamide]",3.7
12,"C[C@]12Cc3cnn(-c4ccc(F)cc4)c3C=C1CC[C@@H]2CN(CCc1ccccc1F)S(=O)(=O)CC(F)(F)F [Example 89, 2,2,2-trifluoro-N-[2-(2-fluorophenyl)ethyl]-N-{[(4αR,5S)-1-(4-fluorophenyl)-4α-methyl-1,4,4α,5,6,7-hexahydrocyclopenta[f]indazol-5-yl]methyl}ethanesulfonamide]",2.4
13,"COc1ccccc1CCN(C[C@H]1CCC2=Cc3c(cnn3-c3ccc(F)cc3)C[C@@]21C)S(=O)(=O)c1ccccc1F [Example 90, 2-fluoro-N-{[(4αR,5S)-1-(4-fluorophenyl)-4α-methyl-1,4,4α,5,6,7-hexahydrocyclopenta[f]indazol-5-yl]methyl}-N-[2-(2-methoxyphenyl)ethyl]benzenesulfonamide]",3.6
14,"Cc1ccc(CCN(C[C@H]2CCC3=Cc4c(cnn4-c4ccc(F)cc4)C[C@@]32C)S(=O)(=O)c2ccccc2F)cc1 [Example 91, 2-fluoro-N-{[(4αR,5S)-1-(4-fluorophenyl)-4α-methyl-1,4,4α,5,6,7-hexahydrocyclopenta[f]indazol-5-yl]methyl}-N-[2-(4-methylphenyl)ethyl]benzenesulfonamide]",2
15,"C[C@]12Cc3cnn(-c4ccc(F)cc4)c3C=C1CC[C@@H]2CN(CCc1ccccc1Cl)S(=O)(=O)c1ccccc1F [Example 92, N-[2-(2-chlorophenyl)ethyl]-2-fluoro-N-{[(4αR,5S)-1-(4-fluorophenyl)-4α-methyl-1,4,4α,5,6,7-hexahydrocyclopenta[f]indazol-5-yl]methyl}benzenesulfonamide]",3
16,"CC(C1CCC2=Cc3c(cnn3-c3ccc(F)cc3)C[C@@]21C)N(CCc1ccccc1F)S(=O)(=O)CC(F)(F)F (stereo partly drawn) [Example 93, 2,2,2-trifluoro-N-[2-(2-fluorophenyl)ethyl]-N-{1-[(4αR)-1-(4-fluorophenyl)-4α-methyl-1,4,4α,5,6,7-hexahydrocyclopenta[f]indazol-5-yl]ethyl}ethanesulfonamide]",2.7
17,"COCCN(C[C@H]1CCC2=Cc3c(cnn3-c3ccc(F)cc3)C[C@@]21C)S(=O)(=O)c1ccccc1F [Example 94, 2-fluoro-N-{[(4αR,5S)-1-(4-fluorophenyl)-4α-methyl-1,4,4α,5,6,7-hexahydrocyclopenta[f]indazol-5-yl]methyl}-N-(2-methoxyethyl)benzenesulfonamide]",2.9
